The source of these data is patent US6881741B2 (ViroChem Pharma Inc., priority 2001, dated 2005).

Each structure is given as a SMILES string. Where a name gives a salt, the structure may show the parent alone. Read-outs that look alike come from different tables or passages of the source.

The target in this assay is recombinant HCV NS5B (HCV RNA-dependent RNA polymerase) (Hepatitis C virus genotype 1b, UniProt P26663). Nature of the assay: biochemical.
The mark [1] stands for this setting: HCV polymerase activity, list of compounds of Example 27, read-out: IC50 (polymerase activity).
[2] abbreviates: related polymerase activity (Example 27 list), read-out: IC50.

recombinant HCV NS5B (HCV RNA-dependent RNA polymerase), sequence (P26663 2420-3010 limits assumed): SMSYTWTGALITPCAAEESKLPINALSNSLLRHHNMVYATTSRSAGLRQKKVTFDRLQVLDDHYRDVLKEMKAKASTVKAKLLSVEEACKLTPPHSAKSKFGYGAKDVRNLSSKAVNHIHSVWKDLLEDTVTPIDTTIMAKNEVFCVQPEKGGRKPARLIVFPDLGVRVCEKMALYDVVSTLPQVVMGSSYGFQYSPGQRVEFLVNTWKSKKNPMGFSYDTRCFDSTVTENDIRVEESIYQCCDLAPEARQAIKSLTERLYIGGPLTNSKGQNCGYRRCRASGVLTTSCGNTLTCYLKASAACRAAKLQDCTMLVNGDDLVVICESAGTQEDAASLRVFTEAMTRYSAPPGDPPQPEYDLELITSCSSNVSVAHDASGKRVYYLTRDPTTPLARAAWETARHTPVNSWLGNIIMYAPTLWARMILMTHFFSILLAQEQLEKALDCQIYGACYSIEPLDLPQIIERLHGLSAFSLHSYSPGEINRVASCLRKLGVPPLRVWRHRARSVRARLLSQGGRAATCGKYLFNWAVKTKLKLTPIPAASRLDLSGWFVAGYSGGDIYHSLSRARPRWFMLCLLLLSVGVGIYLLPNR

As for `COc1cc(C)c(S(=O)(=O)N2CC(C)=CCC2C(=O)N(c2cc(-c3ccccc3)sc2C(=O)O)C(C)C)c(C)c1C` (stereo not shown) [Compound 541, 3-(ISOPROPYL-[1-(4-METHOXY-2,3,6- TRIMETHYL-BENZENESULFONYL)-5- METHYL-1,2,3,6-TETRAHYDRO- PYRIDINE-2-CARBONYL]-AMINO)-5- PHENYL-THIOPHENE-2-CARBOXYLIC ACID], the IC50 under setting [1] was in the range of 5 to 20 µM.
For `CCCN(C(=O)c1ccc(C)cc1)c1cc(-c2cccc(CCC(=O)O)c2)sc1C(=O)O` [Compound 325, 5-[3-(2-CARBOXY-ETHYL)-PHENYL]-3-[(4- METHYL-BENZOYL)-PROPYL-AMINO]- THIOPHENE-2-CARBOXYLIC ACID], the IC50 under setting [2] was in the range of 5 to 20 µM.
Consider `Cc1ccc(S(=O)(=O)Nc2cc(-c3ccc(C(=O)O)cc3)sc2C(=O)O)c(C)c1` [Compound 332, 5-(4-CARBOXY-PHENYL)-3-(2,4-DIMETHYL- BENZENESULFONYLAMINO)- THIOPHENE-2- CARBOXYLIC ACID], for which, under setting [2], the IC50 was less than 5 µM.
On the same count and under the same terms, under `CCS(=O)(=O)Nc1cc(-c2ccccc2)sc1C(=O)O` [Compound 242, 3-ETHANESULFONYLAMINO-5-PHENYL-THIOPHENE-2-CARBOXYLIC ACID] stands 5 to 20 µM; under `Cc1ccc(C(=O)N(C)c2cc(-c3ccccn3)sc2C(=O)O)cc1` [Compound 296, 3-[METHYL-(4-METHYL-BENZOYL)-AMINO]-5-PYRIDIN-2-YL-THIOPHENE-2-CARBOXYLIC ACID], 5 to 20 µM.
In the case of `O=C(O)c1sc(-c2ccccc2)cc1N(Cc1ccccc1Cl)C(=O)C1CC1` [Compound 423, 3-[(2-CHLORO-BENZYL)- CYCLOPROPANECARBONYL-AMINO]-5- PHENYL-THIOPHENE-2-CARBOXYLIC ACID], the 50% inhibitory concentration (IC50) under setting [1] is greater than 20 µM.
For `Cc1ccccc1S(=O)(=O)Nc1cc(Cc2cccc(C#N)c2)sc1C(=O)O` [Compound 150, 5-(3-CYANO-BENZYL)-3-(TOLUENE-2-SULFONYLAMINO)-THIOPHENE-2-CARBOXYLIC ACID], the IC50 under setting [2] is greater than 20 µM.
On the same count and under the same terms, for `Cc1ccc(S(=O)(=O)Nc2cc(-c3ccc(CO)cc3)sc2C(=O)O)c(C)c1` [Compound 320, 3-(2,4-DIMETHYL- BENZENESULFONYLAMINO)-5-(4- HYDROXYMETHYL-PHENYL)- THIOPHENE-2-CARBOXYLIC ACID] the value was less than 5 µM; for `Cc1ccc(C(=O)N(Cc2cccc(C(F)(F)F)c2)c2cc(-c3ccccc3)sc2C(=O)O)cc1` [Compound 330, 3-[(4-METHYL-BENZOYL)-(3- TRIFLUOROMETHYL-BENZYL)-AMINO]-5- PHENYL-THIOPHENE-2-CARBOXYLIC ACID], less than 5 µM.
As for `O=C(O)c1sc(-c2ccccc2)cc1N(C(=O)c1ccc(Cl)cc1Cl)C1CCCC[C@@H]1O` (stereo in doubt) [Compound 538, 3-[(2,4-DICHLORO-BENZOYL)-(2- HYDROXY-CYCLOHEXYL)-AMINO]-5- PHENYL-THIOPHENE-2-CARBOXYLIC ACID], under setting [1], the IC50 was less than 5 µM.
As for `O=C(O)c1sc(-c2ccccc2)cc1NS(=O)(=O)c1ccccc1Br` [Compound 76, 3-(2-BROMO-BENZENESULFONYLAMINO)-5-PHENYL-THIOPHENE-2-CARBOXYLIC ACID], under setting [2], the concentration for half-maximal inhibition (IC50) is less than 5 µM.
Turning to `CCC(=O)N(Cc1ccccc1)c1cc(-c2ccccc2)sc1C(=O)O` [Compound 451, 3-(BENZYL-PROPIONYL-AMINO)-5- PHENYL-THIOPHENE-2-CARBOXYLIC ACID], under setting [1], the IC50 was less than 5 µM.
Still for that read-out and setting: for `CCC(=O)N(Cc1ccc(C)cc1)c1cc(-c2ccccc2)sc1C(=O)O` [Compound 467, 3-[(4-METHYL-BENZYL)-PROPIONYL- AMINO]-5-PHENYL-THIOPHENE-2- CARBOXYLIC ACID] the value was 5 to 20 µM.
In the case of `C=CCN(C(=O)Cc1ccc(Cl)c(Cl)c1)c1cc(-c2ccccc2)sc1C(=O)O` [Compound 350, 3-{ALLYL-[2-(3,4-DICHLORO-PHENYL)- ACETYL]-AMINO}-5-PHENYL-THIOPHENE- 2-CARBOXYLIC ACID], under setting [2], the IC50 fell in the range of 5 to 20 µM.
On the same count and under the same terms, for `N#Cc1ccccc1-c1ccc(CN(C(=O)c2ccc(Cl)cc2Cl)c2cc(-c3ccccc3)sc2C(=O)O)s1` [Compound 132, 3-[[(5-(2-CYANO-PHENYL)-THIOPHEN-2-YLMETHYL]-(2,4-DICHLORO-BENZOYL)-AMINO]-5-PHENYL-THIOPHENE-2-CARBOXYLIC ACID] the value was less than 5 µM.
With `CCOC(=O)c1cccc(-c2cc(NS(=O)(=O)c3ccccc3C)c(C(=O)O)s2)c1` [Compound 121, 5-(3-ETHOXYCARBONYL-PHENYL)-3-(TOLUENE-2-SULFONYLAMINO)-THIOPHENE-2-CARBOXYLIC ACID], the concentration for half-maximal inhibition (IC50) under setting [2] was 5 to 20 µM.
Same read-out and setting: under `O=C(O)c1sc(-c2ccccc2)cc1NC(=O)N1CCN(Cc2ccc(Cl)cc2)CC1` [Compound 183, 3-{[4-(4-CHLORO-BENZYL)-PIPERAZINE-1-CARBONYL]-AMINO}-5-PHENYL-THIOPHENE-2-CARBOXYLIC ACID HYDROCHLORIDE] stands 5 to 20 µM; under `O=C(O)c1sc(-c2ccc([N+](=O)[O-])cc2)cc1NS(=O)(=O)c1ccc(F)cc1F` [Compound 109, 3-(2,4-DIFLUORO-BENZENESULFONYLAMINO)-5-(4-NITRO-PHENYL)-THIOPHENE-2-CARBOXYLIC ACID], less than 5 µM.
On to `CCCCc1ccc(C(=O)N(C)c2cc(-c3ccccc3)sc2C(=O)O)cc1` [Compound 188, 3-[(4-BUTYL-BENZOYL)-METHYL-AMINO]-5-PHENYL-THIOPHENE-2-CARBOXYLIC ACID], for which the IC50 under setting [2] is greater than 20 µM.
Still for that read-out and setting: for `CN(C(=O)c1ccc(Cl)nc1Cl)c1cc(-c2ccccc2)sc1C(=O)O` [Compound 245, 3-[(2,6-DICHLORO-PYRIDINE-3-CARBONYL)-METHYL-AMINO]-5-PHENYL-THIOPHENE-2-CARBOXYLIC ACID] the value was 5 to 20 µM; for `CN(C(=O)c1ccc(C(F)(F)F)c(F)c1)c1cc(-c2ccccc2)sc1C(=O)O` [Compound 279, 3-[(3-FLUORO-4-TRIFLUOROMETHYL-BENZOYL)-METHYL-AMINO]-5-PHENYL-THIOPHENE-2-CARBOXYLIC ACID], 5 to 20 µM.
Consider `Cc1ccc(C(=O)N(C)c2cc(-c3cccnc3)sc2C(=O)O)cc1` [Compound 302, 3-[METHYL-(4-METHYL-BENZOYL)- AMINO]-5-PYRIDIN-3-YL-THIOPHENE-2- CARBOXYLIC ACID], for which the 50% inhibitory concentration (IC50) under setting [2] lay in the range of 5 to 20 µM.
With `Cc1ccc(C(=O)N(c2cc(-c3ccccc3)sc2C(=O)O)C(C)C)c(C(N)=O)c1` [Compound 474, 3-[(2-CARBAMOYL-4-METHYL-BENZOYL)- ISOPROPYL-AMINO]-5-PHENYL- THIOPHENE-2-CARBOXYLIC ACID], the IC50 under setting [1] was in the range of 5 to 20 µM.
Consider `O=C(O)c1sc(-c2ccccc2)cc1NS(=O)(=O)c1ccccn1` [Compound 47, 5-PHENYL-3-(PYRIDINE-2-SULFONYLAMINO)-THIOPHENE-2-CARBOXYLIC ACID], for which, under setting [2], the concentration for half-maximal inhibition (IC50) was greater than 20 µM.
On to `CCCC(=O)N(Cc1ccccc1C)c1cc(-c2ccccc2)sc1C(=O)O` [Compound 433, 3-[BUTYRYL-(2-METHYL-BENZYL)- AMINO]-5-PHENYL-THIOPHENE-2- CARBOXYLIC ACID], for which, under setting [1], the 50% inhibitory concentration (IC50) is 5 to 20 µM.
Same read-out and setting: under `CC1CCC(C(=O)N(c2cc(-c3ccccc3)sc2C(=O)O)C2CCOCC2)CC1` (stereo not shown) [Compound 572, 3-[(4-METHYL- CYCLOHEXANECARBONYL)- (TETRAHYDRO-PYRAN-4-YL)-AMINO]-5- PHENYL-THIOPHENE-2-CARBOXYLIC ACID] stands less than 5 µM.
With `O=C(O)c1sc(-c2ccccc2)cc1NS(=O)(=O)c1ccc(F)cc1C(F)(F)F` [Compound 141, 3-(4-FLUORO-2-TRIFLUOROMETHYL-BENZENESULFONYLAMINO)-5-PHENYL-THIOPHENE-2-CARBOXYLIC ACID], under setting [2], the concentration for half-maximal inhibition (IC50) was 5 to 20 µM.
Still for that read-out and setting: under `CC(C)Cc1cc(N(C(=O)c2ccc(Cl)cc2Cl)C(C)C)c(C(=O)O)s1` [Compound 346, 3-[(2,4-DICHLORO-BENZOYL)- ISOPROPYL-AMINO]-5-ISOBUTYL- THIOPHENE-2-CARBOXYLIC ACID] stands less than 5 µM.
Regarding `CC(C)(C)OC(=O)N1CCC(N(C(=O)c2ccc(Cl)cc2Cl)c2cc(-c3ccccc3)sc2C(=O)O)C1` (stereo not shown) [Compound 499, 3-[(2-CARBOXY-5-PHENYL-THIOPHEN-3- YL)-(2,4-DICHLORO-BENZOYL)-AMINO]- PYRROLIDINE-1-CARBOXYLIC ACID #TERT!-BUTYL ESTER], the IC50 under setting [1] was less than 5 µM.
Take `CC1CCC(C(=O)N(C)c2cc(-c3ccccc3)sc2C(=O)O)CC1` (stereo not shown) [Compound 286, 3-[METHYL-(4-METHYL-CYCLOHEXANECARBONYL)-AMINO]-5-PHENYL THIOPHENE-2-CARBOXYLIC ACID]: the IC50 under setting [2] is less than 5 µM.
On the same count and under the same terms, under `Cc1ccc(C(=O)N(C)c2cc(-c3cccc(C(F)(F)F)c3)sc2C(=O)O)cc1` [Compound 274, 3-[METHYL-(4-METHYL-BENZOYL)-AMINO]-5-(3-TRIFLUOROMETHYL-PHENYL)-THIOPHENE-2-CARBOXYLIC ACID] stands less than 5 µM; under `CC(C)(C)c1ccc(S(=O)(=O)Nc2cc(-c3ccccc3)sc2C(=O)O)cc1` [Compound 32, 3-(4-TERT-BUTYL-BENZENESULFONYLAMINO)-5-PHENYL-THIOPHENE-2-CARBOXYLIC ACID], 5 to 20 µM.
With `O=C(O)c1sc(-c2ccccc2)cc1N(CC1CCNCC1)C(=O)c1ccccc1Cl` [Compound 520, 3-[(2-CHLORO-BENZOYL)-PIPERIDIN-4- YLMETHYL-AMINO]-5-PHENYL- THIOPHENE-2-CARBOXYLIC ACID], under setting [1], the IC50 was less than 5 µM.
As for `CN(C(=O)c1ccc(Cl)cc1Cl)c1cc(-c2ccccc2)sc1C(=O)O` [Compound 9, 3-[(2,4-DICHLORO-BENZOYL)-METHYL-AMINO]-5-PHENYL-THIOPHENE-2-CARBOXYLIC ACID], the concentration for half-maximal inhibition (IC50) under setting [2] is less than 5 µM.
With `CC(C)(C)c1ccc(CN(C(=O)C2CCC2)c2cc(-c3ccccc3)sc2C(=O)O)cc1` [Compound 439, 3-[(4-TERT-BUTYL-BENZYL)- CYCLOBUTANECARBONYL-AMINO]-5- PHENYL-THIOPHENE-2-CARBOXYLIC ACID], the half-inhibitory concentration (IC50) under setting [1] is less than 5 µM.
Turning to `Cc1ccc(C(=O)N(C)c2cc(-c3ccccc3F)sc2C(=O)O)cc1` [Compound 266, 5-(2-FLUORO-PHENYL)-3-[METHYL-(4-METHYL-BENZOYL)-AMINO]-THIOPHENE-2-CARBOXYLIC ACID], under setting [2], the IC50 is less than 5 µM.
For `O=C(O)c1sc(-c2ccccc2)cc1N(Cc1ccccc1Cl)C(=O)C1CCC1` [Compound 425, 3-[(2-CHLORO-BENZYL)- CYCLOBUTANECARBONYL-AMINO]-5- PHENYL-THIOPHENE-2-CARBOXYLIC ACID], the IC50 under setting [1] is 5 to 20 µM.
